Columns and labels:
[1] = molecular target: McpBC (McpB cytoplasmic region, residues 305 to 662) (Bacillus subtilis, UniProt P39215); details: 50 uM protein, 3 mM ethanol, PBS in D2O pH 7.4, 298 K
[2] = molecular target: HemATN (HemAT sensing domain, residues 1 to 178) (Bacillus subtilis, UniProt O07621); details: 50 uM protein, 3 mM ethanol, modified PBS pH 8.0, 10% D2O, 298 K; heme not involved (UV spectra)
Sequence of HemATN (HemAT sensing domain, residues 1 to 178) (O07621 1-178): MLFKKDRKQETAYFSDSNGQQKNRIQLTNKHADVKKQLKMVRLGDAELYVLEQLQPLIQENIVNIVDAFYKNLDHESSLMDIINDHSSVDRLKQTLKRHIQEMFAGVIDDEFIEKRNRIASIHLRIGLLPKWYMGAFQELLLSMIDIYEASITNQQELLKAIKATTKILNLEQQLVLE

Sequence of McpBC (McpB cytoplasmic region, residues 305 to 662) (P39215 305-662): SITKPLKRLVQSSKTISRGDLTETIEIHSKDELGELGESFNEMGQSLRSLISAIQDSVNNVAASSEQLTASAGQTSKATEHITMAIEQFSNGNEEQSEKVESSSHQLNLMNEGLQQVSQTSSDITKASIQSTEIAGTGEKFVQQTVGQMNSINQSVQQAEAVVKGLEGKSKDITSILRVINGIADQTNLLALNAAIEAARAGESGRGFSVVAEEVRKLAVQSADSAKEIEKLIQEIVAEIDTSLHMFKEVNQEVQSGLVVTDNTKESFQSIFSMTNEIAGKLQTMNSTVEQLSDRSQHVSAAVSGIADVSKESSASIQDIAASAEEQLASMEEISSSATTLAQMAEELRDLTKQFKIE

CCO [ethanol]
saturation fraction (STD/1H area ratio, -CH3) [1]: 0.23 | STD/1H area ratio, -CH3 (-CH2 0.85) [2]: 0.27

— PMC7542364 (mBio, 2020)
